We go through ten molecules from patent US6617122B1, “Process for identifying modulators of ABC1 activity” (Xenon Genetics, Inc., priority 1999, dated 2003).

The test system of one experiment is cholesterol efflux. As to conditions: cited from earlier work.
The test system of experiment [1] is ABC1. As to conditions: cited from earlier work.
Experiment [2] concerns the target ABC1 (Homo sapiens, UniProt O95477). As to conditions: cited from earlier work.
Another experiment relates to ABC1 mRNA. Briefly: ABC1 mRNA upon cholesterol loading. Format: cell-based.

Sequence of ABC1 (Homo sapiens, UniProt O95477) (O95477 whole entry): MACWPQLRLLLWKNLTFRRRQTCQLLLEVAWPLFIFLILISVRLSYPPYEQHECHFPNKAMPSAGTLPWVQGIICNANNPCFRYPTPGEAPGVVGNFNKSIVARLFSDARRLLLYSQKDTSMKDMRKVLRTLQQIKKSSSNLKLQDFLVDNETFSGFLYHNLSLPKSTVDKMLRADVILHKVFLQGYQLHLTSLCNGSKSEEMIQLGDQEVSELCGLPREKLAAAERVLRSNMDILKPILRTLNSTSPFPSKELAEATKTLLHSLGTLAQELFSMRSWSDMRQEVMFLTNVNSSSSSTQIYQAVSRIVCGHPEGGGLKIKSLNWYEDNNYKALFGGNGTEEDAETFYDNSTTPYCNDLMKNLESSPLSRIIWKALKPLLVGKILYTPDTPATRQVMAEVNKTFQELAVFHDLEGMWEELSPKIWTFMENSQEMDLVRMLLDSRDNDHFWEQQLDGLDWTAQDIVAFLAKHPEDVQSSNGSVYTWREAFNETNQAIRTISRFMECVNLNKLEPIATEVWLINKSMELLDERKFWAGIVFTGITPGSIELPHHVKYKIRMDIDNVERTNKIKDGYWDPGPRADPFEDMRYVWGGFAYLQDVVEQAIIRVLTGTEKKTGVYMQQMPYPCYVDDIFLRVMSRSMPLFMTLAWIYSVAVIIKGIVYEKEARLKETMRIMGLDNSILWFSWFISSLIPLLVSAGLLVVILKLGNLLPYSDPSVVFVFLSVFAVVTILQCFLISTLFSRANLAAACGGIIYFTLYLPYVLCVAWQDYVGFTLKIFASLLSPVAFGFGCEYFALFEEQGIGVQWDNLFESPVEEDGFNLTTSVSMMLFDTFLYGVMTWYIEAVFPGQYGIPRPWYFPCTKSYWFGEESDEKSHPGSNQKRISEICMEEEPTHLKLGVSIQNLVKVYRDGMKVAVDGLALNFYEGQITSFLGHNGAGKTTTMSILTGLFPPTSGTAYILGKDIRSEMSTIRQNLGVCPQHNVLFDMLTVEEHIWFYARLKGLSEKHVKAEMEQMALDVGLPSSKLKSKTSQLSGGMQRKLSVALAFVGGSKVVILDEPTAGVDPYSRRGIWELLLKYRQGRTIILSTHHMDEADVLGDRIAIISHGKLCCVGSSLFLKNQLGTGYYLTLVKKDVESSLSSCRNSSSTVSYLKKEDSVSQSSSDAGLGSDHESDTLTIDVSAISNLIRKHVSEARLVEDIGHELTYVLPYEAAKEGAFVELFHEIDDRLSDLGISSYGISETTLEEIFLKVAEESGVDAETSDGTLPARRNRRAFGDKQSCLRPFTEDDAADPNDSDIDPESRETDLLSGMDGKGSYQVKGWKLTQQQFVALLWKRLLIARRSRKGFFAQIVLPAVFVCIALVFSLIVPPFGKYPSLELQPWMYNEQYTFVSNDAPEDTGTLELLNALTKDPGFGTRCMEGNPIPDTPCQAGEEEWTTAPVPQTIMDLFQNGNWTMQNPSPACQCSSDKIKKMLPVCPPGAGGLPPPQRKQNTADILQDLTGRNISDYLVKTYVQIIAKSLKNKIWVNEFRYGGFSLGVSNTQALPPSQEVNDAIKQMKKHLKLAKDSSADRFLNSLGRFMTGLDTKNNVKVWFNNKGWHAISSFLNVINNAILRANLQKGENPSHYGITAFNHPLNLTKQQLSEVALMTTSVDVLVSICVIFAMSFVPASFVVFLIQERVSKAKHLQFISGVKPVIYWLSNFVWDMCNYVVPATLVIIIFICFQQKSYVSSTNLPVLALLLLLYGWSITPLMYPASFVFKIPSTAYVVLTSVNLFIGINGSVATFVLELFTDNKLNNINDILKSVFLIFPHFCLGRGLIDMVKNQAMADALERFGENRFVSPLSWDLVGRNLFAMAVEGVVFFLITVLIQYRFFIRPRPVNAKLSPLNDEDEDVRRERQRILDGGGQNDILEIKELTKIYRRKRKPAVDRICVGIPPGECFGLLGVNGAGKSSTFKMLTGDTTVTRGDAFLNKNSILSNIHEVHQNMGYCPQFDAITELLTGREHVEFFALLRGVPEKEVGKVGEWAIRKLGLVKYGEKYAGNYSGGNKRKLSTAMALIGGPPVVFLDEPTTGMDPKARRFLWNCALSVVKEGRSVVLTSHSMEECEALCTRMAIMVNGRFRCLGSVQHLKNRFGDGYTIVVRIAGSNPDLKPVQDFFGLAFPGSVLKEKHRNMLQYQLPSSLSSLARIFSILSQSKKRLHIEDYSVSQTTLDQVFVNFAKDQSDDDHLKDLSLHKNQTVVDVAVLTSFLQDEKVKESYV

With `C[C@H]1CCC/C=C/[C@@H]2C[C@H](O)C[C@H]2[C@H](O)/C=C/C(=O)O1` [Brefeldin], the cholesterol efflux result in the experiment with cholesterol efflux is recorded as “significantly inhibits cholesterol efflux”.
As for `O=S(=O)(O)c1cc(N=C=S)ccc1C=Cc1ccc(N=C=S)cc1S(=O)(=O)O` [DIDS], the “inhibition of ABC1” value in the experiment on ABC1 [1] is “inhibit”.
For `CC(C)Cn1c(=O)n(C)c(=O)c2[nH]cnc21` [IBMX1], at ABC1 [2], the “upregulation of ABC1 expression or biological activity” value was “upregulate”.
Turning to `CC(C)CCC[C@@H](C)[C@H]1CC[C@H]2[C@@H]3CC=C4C[C@@H](O)CC[C@]4(C)[C@H]3CC[C@]12C` [cholesterol], the “increase of ABC1 mRNA” value in the experiment with ABC1 mRNA is reported as “approximately 8 fold”.
As to `O=C(O)c1ccccc1Nc1ccccc1` [diphenylamine-2-carbonic acid], the “inhibition of ABC1” value in the experiment with ABC1 [1] was “inhibit”.
As for `O=C(O)c1ccccc1Nc1cccc(C(F)(F)F)c1` [flufenamic acid], the “inhibition of ABC1” value with ABC1 [1] was “inhibit”.
Turning to `COc1ccc(Cl)cc1C(=O)NCCc1ccc(S(=O)(=O)NC(=O)NC2CCCCC2)cc1` [glibenclamide], the “inhibition of ABC1” value in the experiment with ABC1 [1] is given as “inhibit”.
Take `C=C1[C@@H](O)[C@@H]2O[C@]3(CC[C@H](/C=C/[C@@H](C)[C@@H]4CC(C)=C[C@@]5(O[C@H](C[C@@](C)(O)C(=O)O)CC[C@H]5O)O4)O3)CC[C@H]2O[C@@H]1[C@@H](O)C[C@H](C)[C@H]1O[C@@]2(CCCCO2)CC[C@H]1C` [okadaic acid]: the “upregulation of ABC1 expression or biological activity” value at ABC1 [2] is given as “upregulate”.
As for `O=C1OC(c2ccc(O)c(S(=O)(=O)O)c2)(c2ccc(O)c(S(=O)(=O)O)c2)c2c(Br)c(Br)c(Br)c(Br)c21` [sulfobromophthalein], in the experiment on ABC1 [1], the “inhibition of ABC1” value is listed as “inhibit”.
On to `[O]=[V]([O-])([O-])[O-]` [vanadate], for which the “upregulation of ABC1 expression or biological activity” value at ABC1 [2] is “upregulate”.
